Entries after “also recorded” stand apart in the source; their conditions may differ.

Series [1] concerns zebrafish embryos. In words: Five-day zebrafish toxicity testing. The class given is in vivo. The procedure: Fertilized zebrafish embryos were obtained by natural spawning in our aquaculture facility. To reduce variations between batches, randomized samples of embryos from 3 or 4 independent matings were used. The test medium was prepared by combining 5 g of Instant Ocean Salt with 3 g of CaSO4 in 25 liters of distilled water, according to Westerfield, supra. The embryos were maintained in the test medium throughout the experiments. Embryos at 24 hours of development (with chorion) were exposed continuously for five days to chemical compounds at different concentrations of the chemical compounds and controls. In general, the concentrations ranged from 100 nanomolar (nM) to 100 micromolar (μM). Tests were repeated four times for each series of dilutions, and a standard deviation was calculated for each treatment (see “Statistical Methods” section). Ten embryos per concentration were exposed in a total volume of 1 ml (constant ratio of 100 μl/embryo) using a 24 multi-well plate. (Other sizes of multi-well plates, such as 96-well plates can also be used to facilitate screening.) The compounds were renewed daily. In all cases, 0.1% of dimethyl sulfoxide (DMSO) was used as a carrier solvent during the treatment. Controls with and without 0.1% DMSO were performed in all experiments. This approach has long been used to introduce anesthetics and other chemicals into fish embryos (Westerfield, supra).
Experiments were carried out at a constant temperature (28–28.5° C.) in the dark to protect the compounds from decomposition due to light exposure. Dead embryos were removed daily, counted, and used to calculate the Median Lethal Concentration (LC50, see “Statistical Methods” section herein). Each day, surviving embryos were analyzed visually under a dissecting binocular microscope (Zeiss, amplification 30–50×). Macroscopic malformations (such as axial defects, embryolethality, growth inhibition, general malformations, including microcephaly, macrocephaly, tail truncation, tail malformation, loss of axial structures, such as somites, etc.) were observed, classified, and counted to assess whole animal toxicity. Compounds that were lethal or induced these or any noted malformations or disruptions during development (e.g., during the first 5 days of development) were further examined for toxic effects on organs. The embryonic developmental stage that is affected by the toxic compound can be determined. Organ toxicity can be assessed in surviving embryos using in situ hybridization, enzymatic assays, and immunochemistry procedures.
Toxic activity in the kidney (Pronephros) can be assessed visually by colorimetric staining of the kidney of the treated whole animal (e.g., zebrafish). Zebrafish pronephros express high levels of the enzyme alkaline phosphatase that can be easily assayed using a chromogenic dye. To stain kidneys in zebrafish embryos, embryos were fixed with 2% paraformaldehyde overnight at 4° C. and then treated with methanol 100% for 30 minutes at room temperature. […]
For the concentrations tested with aspirin and dexamethasone in these studies, there was no partial lethality and the geometric mean of the parameters “no mortality” (0%) and “mortality” (100%) of the effect concentration was taken as the LC50 and binomial confidence limits were calculated according to Stephan, “Methods for Calculating LD50” in Aquatic Toxicology and Hazard Evaluation (F. L. Mayce and J. L. Hamelink eds.) ASTM STP 634, pp. 65–84. […]

A further series has as its system mice and rats. As to conditions: TOXNET Web Search and other sources; cited from earlier work.
The test system of series [2] is zebrafish embryos. Kind of series: Rescue of induced cell death activity. The class given is in vivo. To be noted: for opacity at two hours after the addition of 100 μM Ibuprofen / opaque cells at one hour after 100 μM Ibuprofen: yolk injection of 25 μM Caspase 3 inhibitor or PBS at 24 hours; for opaque cells at one hour after 100 μM Ibuprofen: Ibuprofen at 26 hours. Here is the method: To determine if the teleost model could be used to screen for compounds which blocked or reduced cell death activity, embryos were microinjected with a Caspase 3 inhibitor (Calbiochem #264155) prior to exposure to Ibuprofen.
Specifically, embryos at 24 hours of development were dechorionated and microinjected with either 25 μM Caspase 3 inhibitor or PBS into the yolk. At 26 hours of development, embryos were exposed to 100 μM Ibuprofen by addition to the media.

For series [3], the system named is zebrafish embryos. In words: Fluorescent detection of cell death in live zebrafish embryos. As to conditions: 100 μM. The class given is in vivo. The procedure:
As an additional test of our cell death detection method, we also examined the ability of the dye to label cells in embryos treated with Ibuprofen, a cyclooxygenase inhibitor, which causes a characteristic pattern of cell death. This pattern consists of a posterior to anterior progression of dying cells as indicated by a progression of opacity changes in the cells of the embryo.
Embryos as 24 hours of development were pretreated for 1 hour with a 100 nanomolar concentration of the fluorescent dye (e.g., benzothiazolium-4-quinolium dye) in embryo media. The embryos were then exposed to 100 μM of Ibuprofen by addition to the media and examined by light and epifluorescence microscopy every 15 minutes for 2 hours. Control embryos were pretreated with the same concentration of dye, but were not exposed to the Ibuprofen. […] This pattern of fluorescently labeled cells was identical to the pattern observed for the opacity changes in the embryo.

The test system of a further series is zebrafish embryo. Kind of series: First screening experiments for anti-angiogenic effects (compound added to fish culture media). The class given is in vivo. As to conditions: for other effects / complications in the embryo / effect on blood vessel formation: added to the fish culture media; for effect on blood vessel formation: AP staining day three; for diffusion into the zebrafish embryo: after addition to the media. Here is the method: On the third day of development, embryos were collected for alkaline phosphatase staining. Specifically, embryos were fixed in 4% paraformaldehyde and stained for endogenous alkaline phosphatase activity. Embryos were fixed for 2 hours at room temperature. The embryos were then washed two times in phosphate buffered saline (PBS) and dehydrated by immersion in 25%, 50%, 75% and 100% methanol in phosphate buffered saline with 0.1% Tween (PBT) to permeabilize the embryos. The embryos were then rehydrated and washed in 100% PBT. For staining, embryos were equilibrated in NTMT buffer (0.1M Tris-HCl pH 9.5; 50 mM MgCl; 0.1M NaCl; 0.1% Tween 20) at room temperature. After the embryos equilibrated, embryos were stained by adding 4.5 μl of 75 mg/ml nitro blue tetrazolium (NBT) and 3.5 μL of 50 mg/ml X-phosphate per ml. After staining for 10 minutes, all the blood vessels in the fish embryo were labeled (see FIGS. 2A–2C, 3A–3B, 4, 7). The staining reaction was stopped by addition of PBST. Embryos were then examined on a stereo-dissecting microscope. One advantage of using the zebrafish for this type of assay is that the subintestinal vessels, which are located over the yolk, are both sensitive to factors which effect vessel formation and easily assayed by this method (see, e.g., FIG. 7). The subintestinal vessels are normally present on the dorsolateral surface of the yolk of zebrafish embryos by 48 hours of development. They form a distinct basket shape that extends 50–100 μm from the ventral edge of the somite over the yolk. By assaying the subintestinal vessels at 72 hours of development (24 hours after the subintestinal vessels normally appear), normal variation in the timing of the vessel formation was avoided. The staining procedure is easily automated using commercially available instrumentation.
In our first set of screening experiments for anti-angiogenic effects, we examined the effect of fumagillin, a natural anti-angiogenesis chemical, on blood vessel formation in the zebrafish embryo. The compound was administered by addition to the fish culture media. […] Using the screening parameters described above, we identified two compounds that caused apparently specific anti-angiogenic effects. In addition, we identified 16 other compounds that caused a reduction of angiogenic vessel formation in addition to other effects.

For series [4], the system named is zebrafish embryos. Kind of series: Microinjection of proteins into 24 hour embryos, effect on vessel formation. The class given is in vivo. The procedure:
To examine the effects of proteins and protein fragments (and peptides and peptide fragments) on angiogenesis in teleost embryos, proteins (and protein fragments and peptide fragments) were directly injected into the circulation of 24 hour zebrafish embryos. Embryos were collected and dechorionated as described above. The embryos were then sorted into holding ramps made of 1% agarose in embryo water and oriented with the yolk ball projecting up. Microinjection injection was performed as follows: the proteins were suspended in PBS and backfilled into a pulled glass micropipet. The micropipet was then attached to a micromanipulator and a picospritzer (General Valve) attached to a nitrogen tank. Using the micromanipulator, the tip of the micropipet was inserted into the embryo and a small volume of protein solution was expelled from the tip using positive pressure. To determine if our animal model could be used effectively to screen for these compounds, we performed a series of experiments in which we injected one of two different proteins having opposing effects on vessel formation—human endostatin (O'Reilly et al., Cell 88(2):277–285 (1997)) and human vascular endothelial growth factor (VEGF)—into an embryo. Endostatin, a collagen XVIII fragment, is an endogenous protein with potent anti-angiogenic activity. […] In preliminary experiments, we injected VEGF protein either into the yolk ball or into the perivitelline space between the yolk and the periderm. Because the second location is in the path of the venous return, proteins end up in the circulation of the embryo. To backfill the injection pipettes, we used a 2 mg/ml solution of VEGF. […] This is consistent with observations in other vertebrates. Drake et al., Proc. Natl. Acad. Sci. USA 92(17):7657–7661 (1995); Fouquet et al., supra. Endostatin was injected into the zebrafish as was VEGF.

The mark [5] stands for this setting: 24 hour embryos pretreated with dye.
Setting [6] is: 2 mg/ml solution, 24 hour embryos, AP staining at 72 hours.

For `CC(=O)Oc1ccccc1C(=O)O` [Aspirin], in the series on zebrafish embryos [1] (embryos exposed continuously for five days from 24 hours of development), the “Zebrafish LD50” value turned out to be 101 mg/L. The “Zebrafish specific toxicity observed” value with zebrafish embryos [1] (five-day exposure) is recorded as “teratogen,; also recorded: kidney,; also recorded: muscle; also recorded: erratic”. Moreover, the “Mammalian models specific toxicity (from the literature)” value with mice and rats was “kidney,; also recorded: ureter,; also recorded: cardio-; also recorded: cranio-; also recorded: musculo-”.

With `COC(=O)CC[C@H](NC(=O)[C@H](CC(=O)OC)NC(=O)OCc1ccccc1)C(=O)N[C@H](C(=O)N[C@@H](CC(=O)OC)C(=O)CF)C(C)C` [Caspase 3 inhibitor], the “survival by 24 hours after the introduction of 100 μM Ibuprofen” value in the series on zebrafish embryos [2] (yolk injection of 25 μM Caspase 3 inhibitor) is “all of the experimental embryos were dead”. In the series with zebrafish embryos [2], the “opacity at two hours after the addition of 100 μM Ibuprofen” value is given as “still transparent” and the “opaque cells at one hour after 100 μM Ibuprofen” value is recorded as “not in embryos injected with the Caspase inhibitor”.

For the molecule `CC(C)Cc1ccc(C(C)C(=O)O)cc1` (centres unmarked) [Ibuprofen], in the series on zebrafish embryos [3] (24 hour embryos pretreated with 100 nanomolar dye), the “fluorescently labeled (dead or dying) cells within 1 hour” value was “fluorescently labeled cells were detected in the posterior tip of the tail”. In the series on zebrafish embryos [3] (setting [5]), the “fluorescently labeled cells at 1 hour and 30 minutes” value is “labeled cells were detected in a large patch, extended from the tip of the tail to the level of the anus”; the “fluorescently labeled cells by two hours” value is recorded as “fluorescently labeled cells could be seen throughout the embryo”. Besides, in the series with zebrafish embryos [2], the “opacity at two hours after the addition of 100 μM Ibuprofen” value is “completely opaque” and the “opaque cells at one hour after 100 μM Ibuprofen” value is on record as “opaque cells were observed”.

Take `CO[C@@H]1[C@H](OC(=O)/C=C/C=C/C=C/C=C/C(=O)O)CC[C@]2(CO2)[C@H]1[C@@]1(C)O[C@@H]1CC=C(C)C` [fumagillin]: in the series on zebrafish embryo, the “other effects / complications in the embryo” value was “pericardial edema, developmental delay, and axial defects”; the “effect on blood vessel formation” value was “reduction in angiogenesis”; the “diffusion into the zebrafish embryo” value is “capable of diffusing into the zebrafish embryo”.

Ovicillin: in the series on zebrafish embryo, the “other effects / complications in the embryo” value is “pericardial edema”, the “effect on blood vessel formation” value is “reduction in the subintestinal vessels” and the “diffusion into the zebrafish embryo” value was “capable of diffusing into the zebrafish embryo”.

On to VEGF, for which, in the series with zebrafish embryos [4] (setting [6]), the “angiogenic phenotypes after injection into the yolk” value is “the appearance of long spikes projecting from the subintestinal vessel basket; also recorded: increased vessel diameters in the subintestinal basket” and the “effect after injection into the perivitelline space” value was “disruption of vessel formation; also recorded: fusion of large vessels, inappropriate vessel formation”.

Take endostatin: the “effect on vessel formation after injection” value in the series with zebrafish embryos [4] (injected into the zebrafish as was VEGF) is “inconsistent and thus uninterpretable”.

(Values after patent US7041276B2, “Methods of screening agents for activity using teleosts” (priority 1998, dated 2006).)
